This experiment concerns the target T1, hTLR7 (Homo sapiens, UniProt Q9NYK1).
T1 sequence (Q9NYK1 27-1049): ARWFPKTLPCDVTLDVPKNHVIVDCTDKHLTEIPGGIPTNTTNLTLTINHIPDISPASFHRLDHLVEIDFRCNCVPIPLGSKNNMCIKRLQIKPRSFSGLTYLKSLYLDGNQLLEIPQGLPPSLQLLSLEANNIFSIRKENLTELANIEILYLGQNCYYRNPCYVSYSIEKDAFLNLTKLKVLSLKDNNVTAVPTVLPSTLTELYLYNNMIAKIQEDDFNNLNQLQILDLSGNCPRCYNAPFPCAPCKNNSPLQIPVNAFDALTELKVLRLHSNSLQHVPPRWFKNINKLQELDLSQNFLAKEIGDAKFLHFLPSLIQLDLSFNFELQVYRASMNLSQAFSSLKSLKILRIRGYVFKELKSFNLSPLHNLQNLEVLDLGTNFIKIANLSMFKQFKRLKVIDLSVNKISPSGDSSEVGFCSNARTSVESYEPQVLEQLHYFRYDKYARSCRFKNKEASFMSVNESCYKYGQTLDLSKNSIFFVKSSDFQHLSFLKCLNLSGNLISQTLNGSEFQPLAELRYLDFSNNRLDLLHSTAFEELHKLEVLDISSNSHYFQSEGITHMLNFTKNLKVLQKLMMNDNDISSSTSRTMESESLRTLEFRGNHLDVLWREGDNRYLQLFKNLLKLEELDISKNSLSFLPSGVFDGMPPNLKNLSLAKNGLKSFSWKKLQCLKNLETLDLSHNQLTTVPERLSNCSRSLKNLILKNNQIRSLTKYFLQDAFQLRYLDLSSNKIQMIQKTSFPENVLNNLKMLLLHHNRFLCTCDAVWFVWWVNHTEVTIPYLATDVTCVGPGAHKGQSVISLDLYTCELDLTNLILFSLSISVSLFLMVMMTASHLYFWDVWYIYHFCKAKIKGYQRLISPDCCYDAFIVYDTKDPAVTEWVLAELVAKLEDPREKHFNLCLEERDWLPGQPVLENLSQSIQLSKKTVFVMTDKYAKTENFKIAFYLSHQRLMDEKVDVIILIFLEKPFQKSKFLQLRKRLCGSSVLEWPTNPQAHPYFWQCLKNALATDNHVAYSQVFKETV
Put plainly: HEK293-Blue-hTLR-7 cells assay (SEAP reporter, R848 stimulation). Format: cell-based. The settings on record: HEK293-Blue-hTLR7 cells, R848, 20 hrs; read-out: HEK/hTLR7 IC50. Details: host or cells: HEK293 (HEK-Blue). In outline: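 HEK293-Blue cells stably expressing human TLR7 with an NF-κB/AP-1-driven SEAP reporter were treated with serially diluted compound (1% DMSO final) plus R848 for 20 h at 37 °C. Supernatant SEAP activity was measured with QUANTI-Blue substrate after 2 h at 37 °C, with absorbance read at 620-655 nm.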

Molecules are shown by their SMILES.

In the case of `C[C@@H]1CN(c2ccc(C#N)c3ncccc23)C[C@H](CN2CCN(c3cnc4c(c3)CNC4)CC2)O1` [Example 10, 5-[(2S,6R)-2-[[4-(6,7-dihydro-5H-pyrrolo[3,4-b]pyridin-3-yl)piperazin-1-yl]methyl]-6-methyl-morpholin-4-yl] quinoline-8-carbonitrile], the IC50 came out at 35 nM. Take `[2H]c1nc2c(C#N)ccc(N3C[C@H](CN4CCN(c5ccc6c(n5)CN[C@@H]6C)CC4)O[C@H](C)C3)c2nc1[2H]` (single isomer, unassigned) [Example 97]: the IC50 is 7 nM.

Take `[2H]c1nc2c(C#N)ccc(N3C[C@H](CN4CCN(c5ccc6c(n5)CN[C@H]6C)CC4)O[C@H](C)C3)c2nc1[2H]` (single isomer, unassigned) [Example 96]: the IC50 was 4 nM.

On to `[2H]c1ccc2c(N3C[C@H](CN4CCN(c5ccc6c(n5)CN[C@H]6C)CC4)O[C@H](C)C3)ccc(C#N)c2n1` (single isomer, unassigned) [Example 99], for which the IC50 worked out at 11 nM. On to `[2H]c1nc2c(C#N)ccc(N3C[C@H](CN4CCN(c5cc6c(cn5)[C@@H](C)NCC6)CC4)O[C@H](C)C3)c2nc1[2H]` (single isomer, unassigned) [Example 95], for which the IC50 came out at 5 nM. Consider `C[C@@H]1CN(c2ccc(C#N)c3nccnc23)C[C@H](CN2CCN(c3cc4c(cn3)CCN[C@H]4C)CC2)O1` (single isomer, unassigned) [Example 88], for which the IC50 is 6 nM. To `C[C@@H]1CN(c2ccc(C#N)c3nccnc23)C[C@H](CN2CCN(c3cc4c(cn3)CCN[C@@H]4C)CC2)O1` (single isomer, unassigned) [Example 87] belongs 4 nM; to `C[C@@H]1CN(c2ccc(C#N)c3nccnc23)C[C@H](CN2CCN(c3cc4c(cn3)[C@@H](C)NCC4)CC2)O1` (single isomer, unassigned) [Example 86], 6 nM; to `[2H]c1nc2c(C#N)ccc(N3C[C@H](CN4CCN(c5cc6c(cn5)[C@H](C)NCC6)CC4)O[C@H](C)C3)c2nc1[2H]` (single isomer, unassigned) [Example 94], 4 nM. To `[2H]c1ccc2c(N3C[C@H](CN4CCN(c5ccc6c(n5)CN[C@@H]6C)CC4)O[C@H](C)C3)ccc(C#N)c2n1` (single isomer, unassigned) [Example 98] belongs 8 nM; to `C[C@@H]1CN(c2ccc(C#N)c3ncccc23)C[C@H](CN2CCN(c3ccc4c(c3)CNCC4)CC2)O1` [Example 9, 5-[(2R,6S)-2-methyl-6-[[4-(1,2,3,4-tetrahydroisoquinolin-7-yl)piperazin-1-yl]methyl]morpholin-4-yl]quinoline-8-carbonitrile], 42 nM.

For the origin of these results see patent EP3807270B1, “NOVEL HETEROARYL HETEROCYCLYL COMPOUNDS FOR THE TREATMENT OF AUTOIMMUNE DISEASE” (F. Hoffmann-La Roche AG, priority 2018, dated 2019).
